From the supplement of paper PMC6335503
± gives the standard deviation of the averaged measurements.

How the values were obtained:
Experiment in all cases: cell viability, percent of DMSO control (CellTiter-Glo); higher = more viable cells
Details in all cases: 72 h
[1] = system: DFTD cell line T3 (06/0368)
Method: (§1)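 Eight-point dose titration of 41 screen hits in triplicate wells on four Tasmanian devil DFTD tumour cell lines (T1-T4) and devil fibroblasts, 384-well plates. Viability was read by CellTiter-Glo (ATP) after 72 h at 37 °C. Percent of control per plate: DMSO wells = 100%, positive-control wells = 0%.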

[2] = system: DFTD cell line T1 (06/2887)
Method: as §1

[3] = system: DFTD cell line T4 (07/0192)
Method: as §1

[4] = system: DFTD cell line T2 (05/2569)
Method: as §1

Q: Which results are given for `CC#CC(=O)Nc1ccc2ncnc(Nc3cccc(Br)c3)c2c1`?
A: cell viability ([1]; 0.00617 µM): 95.8 ± 5.2%; cell viability ([1]; 0.0185 µM): 105 ± 20%; cell viability ([1]; 0.0556 µM): 108 ± 30%; cell viability ([1]; 0.166667 µM): 76.6 ± 10%; cell viability ([1]; 0.5 µM): 65.5 ± 12%; cell viability ([1]; 1.5 µM): 38.7 ± 7%; cell viability ([1]; 4.5 µM): 28.4 ± 4.2%; cell viability ([1]; 13.5 µM): 18.3 ± 9.3%; cell viability ([2]; 0.00617 µM): 94 ± 1.7%; cell viability ([2]; 0.0185 µM): 95.5 ± 10%; cell viability ([2]; 0.0556 µM): 79.5 ± 27%; cell viability ([2]; 0.166667 µM): 63.3 ± 5.6%; cell viability ([2]; 0.5 µM): 40.9 ± 1.1%; cell viability ([2]; 1.5 µM): 21.1 ± 9.7%; cell viability ([2]; 4.5 µM): 14.8 ± 1.1%; cell viability ([2]; 13.5 µM): 12.3 ± 6.3%; cell viability ([3]; 0.00617 µM): 81.6 ± 19%; cell viability ([3]; 0.0185 µM): 98.5 ± 10%; cell viability ([3]; 0.0556 µM): 106 ± 20%; cell viability ([3]; 0.166667 µM): 73.9 ± 11%; cell viability ([3]; 0.5 µM): 50.7 ± 1.8%; cell viability ([3]; 1.5 µM): 22.7 ± 13%; cell viability ([3]; 4.5 µM): 13.5 ± 5.1%; cell viability ([3]; 13.5 µM): 4.04 ± 10%; cell viability ([4]; 0.00617 µM): 99.6 ± 5.3%; cell viability ([4]; 0.0185 µM): 85 ± 13%; cell viability ([4]; 0.0556 µM): 101 ± 18%; cell viability ([4]; 0.166667 µM): 84 ± 5.7%; cell viability ([4]; 0.5 µM): 84.5 ± 1%; cell viability ([4]; 1.5 µM): 44.6 ± 5.5%; cell viability ([4]; 4.5 µM): 30.3 ± 8.2%; cell viability ([4]; 13.5 µM): 33.4 ± 7.6%

Q: Which cell viability ([1]; 0.00617 µM) does the source give for `COc1cc2ncnc(Nc3ccc(Cl)cc3F)c2cc1OC` here?
A: 120 ± 13%

Q: And the cell viability ([1]; 0.0185 µM)?
A: 89.3 ± 13%

Q: And the cell viability ([1]; 0.0556 µM)?
A: 119 ± 19%

Q: What about the cell viability ([1]; 0.166667 µM) of the same molecule?
A: 97.1 ± 20%

Q: What about the cell viability ([1]; 0.5 µM) of the same molecule?
A: 85.5 ± 8.9%

Q: And the cell viability ([1]; 1.5 µM)?
A: 66.1 ± 8.5%

Q: And the cell viability ([1]; 4.5 µM)?
A: 43.7 ± 8.6%

Q: What about the cell viability ([1]; 13.5 µM) of the same molecule?
A: 47.2 ± 1.9%

Q: What about the cell viability ([2]; 0.00617 µM) of the same molecule?
A: 98.4 ± 38%

Q: And the cell viability ([2]; 0.0185 µM)?
A: 95.7 ± 3.3%

Q: What about the cell viability ([2]; 0.0556 µM) of the same molecule?
A: 124 ± 36%

Q: What about the cell viability ([2]; 0.166667 µM) of the same molecule?
A: 110 ± 31%

Q: And the cell viability ([2]; 0.5 µM)?
A: 83.1 ± 28%

Q: What about the cell viability ([2]; 1.5 µM) of the same molecule?
A: 44.3 ± 8.7%

Q: What about the cell viability ([2]; 4.5 µM) of the same molecule?
A: 26.7 ± 7.2%

Q: And the cell viability ([2]; 13.5 µM)?
A: 36.9 ± 1.4%

Q: And the cell viability ([3]; 0.00617 µM)?
A: 116 ± 7.2%

Q: And the cell viability ([3]; 0.0185 µM)?
A: 99.5 ± 7.3%

Q: What about the cell viability ([3]; 0.0556 µM) of the same molecule?
A: 119 ± 36%

Q: And the cell viability ([3]; 0.166667 µM)?
A: 97 ± 12%

Q: And the cell viability ([3]; 0.5 µM)?
A: 93.8 ± 12%

Q: And the cell viability ([3]; 1.5 µM)?
A: 75.3 ± 13%

Q: And the cell viability ([3]; 4.5 µM)?
A: 45 ± 6.2%

Q: What about the cell viability ([3]; 13.5 µM) of the same molecule?
A: 35.2 ± 3.8%

Q: And the cell viability ([4]; 0.00617 µM)?
A: 105 ± 20%

Q: And the cell viability ([4]; 0.0185 µM)?
A: 86.8 ± 13%

Q: What about the cell viability ([4]; 0.0556 µM) of the same molecule?
A: 112 ± 22%

Q: What about the cell viability ([4]; 0.166667 µM) of the same molecule?
A: 116 ± 35%

Q: What about the cell viability ([4]; 0.5 µM) of the same molecule?
A: 85.2 ± 24%

Q: What about the cell viability ([4]; 1.5 µM) of the same molecule?
A: 59.5 ± 9.7%

Q: What about the cell viability ([4]; 4.5 µM) of the same molecule?
A: 27.6 ± 4.8%

Q: And the cell viability ([4]; 13.5 µM)?
A: 28.3 ± 5%

Q: For `COc1cc2ncnc(Nc3cccc(Br)c3)c2cc1OC.Cl`, which cell viability ([1]; 0.00617 µM) is on record?
A: 127 ± 22%

Q: What about the cell viability ([1]; 0.0185 µM) of the same molecule?
A: 90.2 ± 19%

Q: What about the cell viability ([1]; 0.0556 µM) of the same molecule?
A: 118 ± 9.9%

Q: What about the cell viability ([1]; 0.166667 µM) of the same molecule?
A: 108 ± 7.1%

Q: What about the cell viability ([1]; 0.5 µM) of the same molecule?
A: 89.1 ± 20%

Q: What about the cell viability ([1]; 1.5 µM) of the same molecule?
A: 49 ± 2.4%

Q: What about the cell viability ([1]; 4.5 µM) of the same molecule?
A: 39.8 ± 1.5%

Q: What about the cell viability ([1]; 13.5 µM) of the same molecule?
A: 30.8 ± 7.7%

Q: And the cell viability ([2]; 0.00617 µM)?
A: 126 ± 20%

Q: What about the cell viability ([2]; 0.0185 µM) of the same molecule?
A: 99 ± 21%

Q: What about the cell viability ([2]; 0.0556 µM) of the same molecule?
A: 112 ± 21%

Q: And the cell viability ([2]; 0.166667 µM)?
A: 111 ± 19%

Q: And the cell viability ([2]; 0.5 µM)?
A: 63 ± 27%

Q: What about the cell viability ([2]; 1.5 µM) of the same molecule?
A: 24.8 ± 4.3%

Q: And the cell viability ([2]; 4.5 µM)?
A: 22.8 ± 4.8%

Q: What about the cell viability ([2]; 13.5 µM) of the same molecule?
A: 12.4 ± 4%

Q: What about the cell viability ([3]; 0.00617 µM) of the same molecule?
A: 126 ± 14%

Q: What about the cell viability ([3]; 0.0185 µM) of the same molecule?
A: 94 ± 30%

Q: And the cell viability ([3]; 0.0556 µM)?
A: 105 ± 1.4%

Q: What about the cell viability ([3]; 0.166667 µM) of the same molecule?
A: 104 ± 9.2%

Q: What about the cell viability ([3]; 0.5 µM) of the same molecule?
A: 91 ± 33%

Q: And the cell viability ([3]; 1.5 µM)?
A: 48.8 ± 3.7%

Q: What about the cell viability ([3]; 4.5 µM) of the same molecule?
A: 28.6 ± 4.1%

Q: And the cell viability ([3]; 13.5 µM)?
A: 17.7 ± 5.7%

Q: What about the cell viability ([4]; 0.00617 µM) of the same molecule?
A: 115 ± 13%

Q: What about the cell viability ([4]; 0.0185 µM) of the same molecule?
A: 106 ± 32%

Q: What about the cell viability ([4]; 0.0556 µM) of the same molecule?
A: 106 ± 25%

Q: And the cell viability ([4]; 0.166667 µM)?
A: 107 ± 11%

Q: And the cell viability ([4]; 0.5 µM)?
A: 77 ± 26%

Q: What about the cell viability ([4]; 1.5 µM) of the same molecule?
A: 40.7 ± 2.4%

Q: And the cell viability ([4]; 4.5 µM)?
A: 32.9 ± 7.8%

Q: What about the cell viability ([4]; 13.5 µM) of the same molecule?
A: 21.2 ± 5.5%
